{"source": "patent US10023565B2", "about": "“N,N′ substituted piperidinamine compounds, and preparation method and usage thereof” (Institute of Pharmacology and Toxicology Academy of …, priority 2013, dated 2018)", "experiment": "Mice pharmacokinetic evaluation (LC-MS/MS of plasma)", "assay_type": "in vivo, ICR mice", "settings": "for in vivo absorption and elimination: intragastric administration to mice", "method": "Mice pharmacokinetic evaluation of the compound of Example 36 according to the method described below\nICR mice, SPS grade, male, weighed […], license number SCXK (Beijing) 2012-0001, purchased from Beijing Vital River Laboratory Animal Technology Co. Ltd.\nChromatographic conditions: Analytical column: Capcell Pak MG, 5 μm particle size, 50×2.0 mm I.D. (Shiseido Co.), connected with C18 guard column, 4×3.0 mm I.D. (PhenomenexCo., USA), column temperature 25° C., mobile phase: acetonitrile −2 mM ammonium acetate (65:35, v/v), flow rate 0.3 ml/min, internal standard: loratadine.\nMS conditions: Electrospray ionization source (Turbo Ionspray source), positive ion mode detection; spray voltage 4500 V; source temperature 400° C.; nebulizer gas (NEB) 8; curtain gas (CUR) 10; collision gas (CAD) 4; scanning mode: multiple reaction monitoring (MRM), ion reactions for quantitative analysis: m/z 354.4→m/z 154.1 (Mol, CE 43 V) and m/z 383→m/z 337 (internal standard loratadine, CE 32 V), scanning time 150 msec.\nTo 50 μl of plasma, were added 10 μl of internal standard solution (125 ng/ml aqueous solution of loratadine), and 500 μl of n-hexane-dichloromethane-isopropanol (100:50:5, v/v/v); they were uniformly mixed, followed by vortexing for 3 min, and centrifuging for 10 min (3000 rpm); the supernatant was taken and blow dried with air streamat 40° C.; the residue was dissolved with 150 μl […], and subjected to LC-MS/MS analysis.\n30 ICR male mice were randomly divided into […], five mices each group, including Mol 10 mg/kg oral group and 1.0 mg/kg tail intravenous injection group. For oral group, before administration, the animals were fasted for 12 h, with free access to water; 0.08, 0.25, 0.5, 1, 2, 4, 6, 8, 12 and 24 h after intragastrical administration, 0.1 ml of orbital venous sinus blood was taken, placed in anticoagulation tube containing heparin sodium, and subjected to 3000 g centrifugation for 15 min; and then, the plasma was taken and stored in a −20° C. refrigerator. […]\nPharmacokinetic parameters were calculated using non-compartment model of Winnonlin® software (Version 5.2.1, USA). Cmax is the measured maximum plasma concentration, Tmax is time to peak plasma concentration after oral administration, t1/2 is drug terminal elimination halflife, MRT is average residence time of drug in vivo, the area AUC0-t under plasma concentration—time curve is calculated by trapezoidal method.\nBioavailability is calculated as follows: […]\nAUC: Area (h*ng/ml) under the curve; D: dose (mg/kg)", "key": {"[1]": {"settings": "IV 1.0 mg/kg, individual mice 4-6, listed as Mol, 1 mg/kg"}, "[2]": {"settings": "Po 10 mg/kg, individual mice 1-3, listed as Mol, 10 mg/kg"}, "[3]": {"settings": "male, ICR, mouse, plasma, iv, 1 mg/kg, IV 1.0 mg/kg, Mean ± SD, n = 3"}, "[4]": {"settings": "male, ICR, mouse, plasma, iv, 1 mg/kg, IV 1.0 mg/kg, individual mice 4-6"}}, "note": "Where “and” joins values, the source holds several entries; their conditions need not be identical. Equal values may be shown once. Read-outs that look alike come from different tables or passages of the source.", "data": [{"smiles": "CSc1nccc(N2CCC(N(C)Cc3ccc(C#N)cc3)CC2)n1", "note": "[Example 36, N-methyl-N-(4-cyanobenzyl)-N-[1-(2-methylthiopyrimidin-4-yl)piperidin-4-yl]amine]", "values": [{"measurement": "Ke", "setting": "IV 1.0 mg/kg, Mean ± SD, n = 3", "value": "0.97 ± 0.88", "unit": "h⁻¹"}, {"measurement": "AUC0-∞", "setting": "[1]", "value": "37.81 ng·h/mL and 58.27 ng·h/mL"}, {"measurement": "Cmax", "setting": "[1]", "value": "63.90 ng/mL and 71.35 ng/mL"}, {"measurement": "Ke", "setting": "[1]", "value": "1.98 h⁻¹ and 0.51 h⁻¹ and 0.43 h⁻¹"}, {"measurement": "MRT0-t", "setting": "[1]", "value": "0.42 h and 1.02 h and 2.40 h"}, {"measurement": "MRT0-∞", "setting": "[1]", "value": "0.46 h and 1.35 h and 2.71 h"}, {"measurement": "Tmax", "setting": "[1]", "value": "0.03 h (2×) and 0.08 h"}, {"measurement": "t1/2", "setting": "[1]", "value": "0.35 h and 1.37 h and 1.62 h"}, {"measurement": "F (bioavailability)", "setting": "Po 10 mg/kg vs IV 1.0 mg/kg, individual mice 1-3, listed as Mol", "value": "43.20% and 63.94% and 59.39%"}, {"measurement": "Ke", "setting": "Po 10 mg/kg, Mean ± SD, n = 3", "value": "0.43 ± 0.33", "unit": "h⁻¹"}, {"measurement": "Cmax", "setting": "Po 10 mg/kg, Mean ± SD, n = 3, listed as Mol, 10 mg/kg", "value": "260.2 ± 63.19", "unit": "ng/mL"}, {"measurement": "AUC0-∞", "setting": "[2]", "value": "317.86 ng·h/mL and 305.15 ng·h/mL"}, {"measurement": "Cmax", "setting": "[2]", "value": "260.48 ng/mL and 323.37 ng/mL"}, {"measurement": "Ke", "setting": "[2]", "value": "0.40 h⁻¹ and 0.77 h⁻¹ and 0.13 h⁻¹"}, {"measurement": "MRT0-t", "setting": "[2]", "value": "1.26 h and 0.93 h and 2.56 h"}, {"measurement": "MRT0-∞", "setting": "[2]", "value": "1.34 h and 0.95 h and 3.57 h"}, {"measurement": "Tmax", "setting": "[2]", "value": "0.08 h and 1.00 h and 0.25 h"}, {"measurement": "t1/2", "setting": "[2]", "value": "1.74 h and 0.90 h and 5.53 h"}, {"measurement": "in vivo absorption and elimination", "setting": "10 mg/kg", "value": "in vivo absorption and elimination of the compound both are faster"}, {"measurement": "in vivo absorption and elimination", "setting": "10 mg/kg, listed as Mol", "value": "the vivo absorption and elimination after intragastrical administration to mice both were quite fast"}, {"measurement": "Plasma concentration of active compound", "setting": "intravenous 1.0 mg/kg, 0.03 h, individual mice 4-6, listed as Mol, 1 mg/kg", "value": "99.34 ng/mL and 9.23 ng/mL and 71.35 ng/mL"}, {"measurement": "Plasma concentration of active compound", "setting": "intravenous 1.0 mg/kg, 0.08 h, individual mice 4-6, listed as Mol, 1 mg/kg", "value": "63.90 ng/mL and 63.03 ng/mL"}, {"measurement": "Plasma concentration of active compound", "setting": "intravenous 1.0 mg/kg, 0.17 h, individual mice 4-6, listed as Mol, 1 mg/kg", "value": "56.30 ng/mL and 52.58 ng/mL"}, {"measurement": "Plasma concentration of active compound", "setting": "intravenous 1.0 mg/kg, 0.5 h, individual mice 4-6, listed as Mol, 1 mg/kg", "value": "48.72 ng/mL and 24.29 ng/mL and 21.45 ng/mL"}, {"measurement": "Plasma concentration of active compound", "setting": "intravenous 1.0 mg/kg, 1.0 h, individual mice 4-6, listed as Mol, 1 mg/kg", "value": "10.10 ng/mL and 3.94 ng/mL and 7.02 ng/mL"}, {"measurement": "Plasma concentration of active compound", "setting": "intravenous 1.0 mg/kg, 2.0 h, individual mice 4-6, listed as Mol, 1 mg/kg", "value": "2.35 ng/mL and 0.95 ng/mL and 1.99 ng/mL"}, {"measurement": "Plasma concentration of active compound", "setting": "intravenous 1.0 mg/kg, 4.0 h, individual mice 4-6, listed as Mol, 1 mg/kg", "value": 2.23, "unit": "ng/mL"}, {"measurement": "Plasma concentration of active compound", "setting": "intravenous 1.0 mg/kg, 8.0 h, individual mice 4-6, listed as Mol, 1 mg/kg", "value": 0.98, "unit": "ng/mL"}, {"measurement": "AUC(0-inf)", "setting": "[3]", "value": "51.2 ± 11.6", "unit": "ng·h/mL"}, {"measurement": "AUC(0-t)", "setting": "[3]", "value": "49.6 ± 11.4", "unit": "ng·h/mL"}, {"measurement": "half-life", "setting": "[3]", "value": "1.11 ± 0.67", "unit": "h"}, {"measurement": "Cmax", "setting": "male, ICR, mouse, plasma, iv, 1 mg/kg, IV 1.0 mg/kg, Mean ± SD, n = 3, read-out: Cmax", "value": "78.1 ± 18.7", "unit": "ng/mL"}, {"measurement": "MRT last", "setting": "male, ICR, mouse, plasma, iv, 1 mg/kg, IV 1.0 mg/kg, Mean ± SD, n = 3, read-out: MRT0-t", "value": "1.28 ± 1.01", "unit": "h"}, {"measurement": "MRT inf", "setting": "male, ICR, mouse, plasma, iv, 1 mg/kg, IV 1.0 mg/kg, Mean ± SD, n = 3, read-out: MRT0-∞", "value": "1.51 ± 1.13", "unit": "h"}, {"measurement": "Tmax", "setting": "male, ICR, mouse, plasma, iv, 1 mg/kg, IV 1.0 mg/kg, Mean ± SD, n = 3, read-out: Tmax", "value": "0.05 ± 0.03", "unit": "h"}, {"measurement": "AUC(0-inf)", "setting": "[4]", "value": 57.6, "unit": "ng·h/mL"}, {"measurement": "AUC(0-t)", "setting": "[4]", "value": 56.4, "unit": "ng·h/mL"}, {"measurement": "Cmax", "setting": "male, ICR, mouse, plasma, iv, 1 mg/kg, IV 1.0 mg/kg, individual mice 4-6, read-out: Cmax", "value": 99.3, "unit": "ng/mL"}, {"measurement": "concentration at 0.03 h", "setting": "male, ICR, mouse, plasma, iv, 1 mg/kg, intravenous 1.0 mg/kg, 0.03 h, Mean, read-out: Plasma concentration of active compound", "value": 60, "unit": "ng/mL"}, {"measurement": "concentration at 0.08 h", "setting": "male, ICR, mouse, plasma, iv, 1 mg/kg, intravenous 1.0 mg/kg, 0.08 h, Mean, read-out: Plasma concentration of active compound", "value": 74.5, "unit": "ng/mL"}, {"measurement": "concentration at 0.08 h", "setting": "male, ICR, mouse, plasma, iv, 1 mg/kg, intravenous 1.0 mg/kg, 0.08 h, individual mice 4-6, read-out: Plasma concentration of active compound", "value": 96.6, "unit": "ng/mL"}]}]}
